The target in test [1] is MAPK14 (UniProt Q16539). Put plainly: Enzyme Assay.
Test [2] has as its target MAPK14 (UniProt Q16539). Put plainly: Enzyme Assay. The source holds these as a separate data set.
A further test has as its target MAPK14 (human) (UniProt Q16539). Put plainly: Cell-Based Assay. The settings on record: monocyte.

Chain of MAPK14 (human) (Q16539 whole entry, looked up): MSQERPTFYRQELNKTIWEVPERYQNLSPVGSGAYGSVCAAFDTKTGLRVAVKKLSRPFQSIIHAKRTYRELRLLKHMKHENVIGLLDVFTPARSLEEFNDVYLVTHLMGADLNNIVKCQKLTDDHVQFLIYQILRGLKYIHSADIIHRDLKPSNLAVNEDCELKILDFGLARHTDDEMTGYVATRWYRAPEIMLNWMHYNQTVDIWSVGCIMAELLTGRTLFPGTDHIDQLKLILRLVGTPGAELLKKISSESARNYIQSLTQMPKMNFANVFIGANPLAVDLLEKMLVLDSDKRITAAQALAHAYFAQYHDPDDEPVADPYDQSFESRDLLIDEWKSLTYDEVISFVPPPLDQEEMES
Chain of MAPK14 (Q16539 whole entry, looked up): as above

Turning to `CCc1nc[nH]c1-c1ccncc1`, the figures for the IC50 against MAPK14 [1], against MAPK14 [2] and on MAPK14 (human) were more than 2500 nM, more than 30000 nM and more than 5000 nM, respectively.
In the case of `Fc1ccc(-c2nc3n(c2-c2ccncc2)CCC3)cc1`, the figures for the concentration for half-maximal inhibition (IC50) at MAPK14 [2] and on MAPK14 (human) were 66 nM and 170 nM, respectively.
With `Fc1ccc(-c2ncn(CCCNCc3ccccc3)c2-c2ccncc2)cc1`, the IC50 (in general, the concentration that gives 50% inhibition) on MAPK14 (human) is 590 nM.
With `Clc1cccc(-c2nc3n(c2-c2ccncc2)CCC3)c1`, the half-inhibitory concentration (IC50) at MAPK14 [2] was 40 nM; against MAPK14 (human) it was 50 nM.
On to `CSc1cccc(-c2ncn(CCCN3CCOCC3)c2-c2ccncc2)c1`, for which the half-maximal inhibitory concentration (IC50) against MAPK14 (human) came out at 1000 nM. That is a single-digit micromolar value.
Same read-out and setting: with `C[S+]([O-])c1cccc(-c2ncn(CCCN3CCOCC3)c2-c2ccncc2)c1` (configuration not stated) the figure was more than 5000 nM.
Turning to `Brc1ccc(-c2nc3n(c2-c2ccncc2)CCC3)cc1`, the results for the IC50 against MAPK14 [2] and on MAPK14 (human) were 3200 nM and 700 nM, respectively.
The matching figures for `COc1ccc(-c2nc3n(c2-c2ccncc2)CCC3)cc1`: 3600 nM and 4200 nM.
The compound `Fc1ccc(-c2ncn(CCCN3CCOCC3)c2-c2ccccn2)cc1` registered an IC50 against MAPK14 [2] of more than 10000 nM.
Still for that read-out and setting: with `Clc1nc2n(c1-c1ccncc1)CCC2` the figure was more than 50000 nM.
`Cc1cc(-c2[nH]c(-c3ccc([S+](C)[O-])cc3)nc2-c2ccc(F)cc2)ccn1` (configuration not stated) yielded a 50% inhibitory concentration (IC50) against MAPK14 (human) of 430 nM. That is a sub-micromolar value.
At MAPK14 [2], `C[S+]([O-])c1ccc(-c2nc(-c3cccs3)c(-c3ccncc3)[nH]2)cc1` (configuration not stated) came in with a half-inhibitory concentration (IC50) of 460 nM.
Still for that read-out and setting: with `Clc1ccc(-c2nc3n(c2-c2ccncc2)CCC3)cc1` the figure was 50 nM.
At MAPK14 (human), `C[S+]([O-])c1ccc(-n2cnc(-c3ccc(F)cc3)c2-c2ccncc2)cc1` (configuration not stated) displayed a 50% inhibitory concentration (IC50) of 2300 nM.
The compound `CC(=O)OCCn1cnc(-c2ccc(F)cc2)c1-c1ccncc1` displayed a half-inhibitory concentration (IC50) on MAPK14 [2] of 50 nM. This lies in the double-digit nanomolar range.
The same measure, in the same setting: with `CC(=O)OCCc1nc(-c2ccncc2)c(-c2ccc(F)cc2)[nH]1` the figure was more than 10000 nM; with `Fc1ccc(-c2ncn(C3CCN(Cc4ccccc4)CC3)c2-c2ccncc2)cc1`, 440 nM.
With `C[S+]([O-])c1ccc(-c2nc3n(c2-c2ccncc2)CCC3)cc1` (configuration not stated), the IC50 on MAPK14 [2] and against MAPK14 (human) was more than 10000 nM in each case.
As for `CSc1ccc(-c2nc3n(c2-c2ccncc2)CCC3)cc1`, the IC50 came to 3400 nM against MAPK14 [2] and 2700 nM at MAPK14 (human).
In the case of `Cc1cc(-c2c(-c3ccc(F)cc3)ncn2CCCN2CCOCC2)ccn1`, at MAPK14 [2], the 50% inhibitory concentration (IC50) is 3000 nM.
On to `CC(C)(C)C1=CC(O)(C(C)(C)C)CC(c2nc(-c3ccc(F)cc3)c(-c3ccncc3)[nH]2)=C1` (configuration not stated), for which the 50% inhibitory concentration (IC50) at MAPK14 [1] was more than 2500 nM; against MAPK14 [2], more than 30000 nM; at MAPK14 (human), more than 5000 nM.
Turning to `O=C1CN(c2ccc(-c3nc(-c4ccc(F)cc4)c(-c4ccncc4)[nH]3)cc2)NO1`, the IC50 against MAPK14 [2] was found to be 30 nM.
For `O=[N+]([O-])c1ccc(-c2nc(-c3ccc(F)cc3)c(-c3ccccc3)[nH]2)cc1`, the half-maximal inhibitory concentration (IC50) was more than 2500 nM at MAPK14 [1], more than 10000 nM on MAPK14 [2] and more than 5000 nM on MAPK14 (human).
In turn, `Clc1ccccc1-c1nc2n(c1-c1ccncc1)CCC2` gave a 50% inhibitory concentration (IC50) against MAPK14 [2] of 250 nM.
Regarding `CCSc1ccc(-c2nc3n(c2-c2ccncc2)CCC3)cc1`, the IC50 against MAPK14 [2] was 5600 nM; on MAPK14 (human) it was more than 20000 nM.
Consider `Fc1ccc(-c2c(-c3ccncc3)nc3n2CCC3)cc1`, for which the IC50 against MAPK14 [2] is more than 10000 nM.
Still for that read-out and setting: then `Fc1ccc(-c2ncn(CCCN3CCOCC3)c2-c2cccnc2)cc1`, with more than 10000 nM.
Consider `CS(=O)(=O)c1ccc(-c2nc3n(c2-c2ccncc2)CCC3)cc1`, for which the IC50 at MAPK14 [2] and at MAPK14 (human) was more than 10000 nM each time.
